Legend:
Cathepsin B [1] = biological target: T1, Cathepsin B (Homo sapiens, UniProt P07858); experiment: Inhibition of human liver cathepsin B using Cbz-Arg-Arg-pNA as substrate at pH 6 incubated for 30 mins measured for 20 mins by photometrical analysis
Cathepsin S = Cathepsin S (Homo sapiens, UniProt P25774); experiment: Inhibition of human recombinant cathepsin S using Cbz-Phe-Arg-AMC as substrate incubated for 60 mins measured for 20 mins by spectrofluorometrical analysis
Cathepsin B [2] = biological target: T1, Cathepsin B; experiment: Inhibition of human liver cathepsin B using Cbz-Arg-Arg-pNA as substrate at pH 4.5 incubated for 30 mins measured for 20 mins by photometrical analysis
Cathepsin K = biological target: T2, Cathepsin K (Homo sapiens, UniProt P43235); experiment: Inhibition of human recombinant cathepsin K using Cbz-Leu-Arg-AMC as substrate incubated for 30 mins measured for 20 mins by spectrofluorometrical analysis
T2 sequence (P43235 whole entry): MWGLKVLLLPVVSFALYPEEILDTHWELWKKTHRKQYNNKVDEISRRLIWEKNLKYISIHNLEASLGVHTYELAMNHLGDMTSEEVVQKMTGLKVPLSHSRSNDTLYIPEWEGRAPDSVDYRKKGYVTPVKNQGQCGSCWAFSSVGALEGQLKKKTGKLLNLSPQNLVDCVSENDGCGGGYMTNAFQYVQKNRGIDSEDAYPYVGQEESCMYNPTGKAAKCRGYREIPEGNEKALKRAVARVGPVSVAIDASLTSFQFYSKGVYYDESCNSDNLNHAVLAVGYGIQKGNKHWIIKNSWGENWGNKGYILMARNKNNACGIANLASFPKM

Procathepsin L = Procathepsin L (Homo sapiens, UniProt P07711); experiment: Inhibition of human liver cathepsin L using Cbz-Phe-Arg-pNA as substrate incubated for 30 mins measured for 20 mins by photometrical analysis
Procathepsin L, sequence (P07711 whole entry): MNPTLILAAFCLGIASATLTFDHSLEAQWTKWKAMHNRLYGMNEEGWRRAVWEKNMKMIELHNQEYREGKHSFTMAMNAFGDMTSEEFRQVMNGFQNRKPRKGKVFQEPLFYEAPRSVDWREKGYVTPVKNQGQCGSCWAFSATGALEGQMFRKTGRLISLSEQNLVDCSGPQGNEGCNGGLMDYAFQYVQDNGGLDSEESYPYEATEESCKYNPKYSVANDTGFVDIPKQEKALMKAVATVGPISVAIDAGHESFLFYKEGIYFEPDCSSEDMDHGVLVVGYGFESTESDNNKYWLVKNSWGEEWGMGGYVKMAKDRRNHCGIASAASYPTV

Cathepsin B [3] = biological target: T1, Cathepsin B; experiment: Inhibition of human liver cathepsin B using Abz-Gly-Ile-Val-Arg-Ala-Lys(Dnp)-OH as substrate at pH 4.5 incubated for 30 mins measured for 10 mins by […]
Cathepsin B [4] = biological target: T1, Cathepsin B; experiment: Inhibition of human cathepsin B

Cathepsin S, sequence (P25774 whole entry): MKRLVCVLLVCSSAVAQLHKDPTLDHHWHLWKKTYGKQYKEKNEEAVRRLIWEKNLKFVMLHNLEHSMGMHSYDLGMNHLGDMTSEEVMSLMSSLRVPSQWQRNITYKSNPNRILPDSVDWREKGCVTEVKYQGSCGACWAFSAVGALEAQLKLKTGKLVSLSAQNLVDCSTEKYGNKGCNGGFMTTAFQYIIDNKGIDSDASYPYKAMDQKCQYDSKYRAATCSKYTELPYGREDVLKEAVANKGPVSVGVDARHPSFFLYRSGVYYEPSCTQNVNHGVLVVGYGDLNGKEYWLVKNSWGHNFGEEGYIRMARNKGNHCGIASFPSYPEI

| Compound | Ki (Cathepsin B [1]) [nM] | further results |
| --- | --- | --- |
| CC(C)(C)OC(=O)N[C@@H](Cc1ccccc1Br)C(=O)NCC#N | > 330 | – |
| N#C[C@H](COCc1cn(CC(=O)O)nn1)NC(=O)[C@H](Cc1cccc(Br)c1)NC(=O)c1ccc(-c2ccccc2)cc1 | 41.3 | Ki (Cathepsin S): 352 nM; Ki (Cathepsin B [2]): 27.3 nM; Ki (Cathepsin K): 335 nM; Ki (Procathepsin L): 6300 nM; Ki (Cathepsin B [3]): 19.2 nM |
| CC(C)(C)OC(=O)N[C@@H](CC1CCCCC1)C(=O)NCC#N | > 330 | – |
| CC(C)(C)OC(=O)N[C@@H](Cc1cccc(Br)c1)C(=O)NCC#N | 5170 | – |
| CC(=O)N[C@@H](Cc1ccccc1)C(=O)NCC#N | > 330 | – |
| C[C@H](NC(=O)OC(C)(C)C)C(=O)NCC#N | > 330 | – |
| N#C[C@H](COCc1cn(CC(=O)O)nn1)NC(=O)[C@H](Cc1ccccc1)NC(=O)OCc1ccccc1 | 24000 | Ki (Cathepsin S): 4480 nM; Ki (Cathepsin K): 310 nM; Ki (Procathepsin L): 1050 nM |
| N#C[C@H](CCOCc1cn(CCC(=O)O)nn1)NC(=O)[C@H](Cc1ccccc1)NC(=O)OCc1ccccc1 | 196000 | Ki (Cathepsin S): 490 nM; Ki (Cathepsin K): 370 nM; Ki (Procathepsin L): 1920 nM |
| CC(C)(C)OC(=O)N[C@@H](Cc1ccc(O)cc1)C(=O)NCC#N | > 330 | – |
| CC(C)C[C@@H](C#N)NC(=O)[C@H](C)NC(=O)CNC(=O)OCc1ccccc1 | > 330 | – |
| CCC(C)[C@H](NC(=O)OC(C)(C)C)C(=O)NCC#N (some centres not stated) | > 330 | – |
| CC(C)(C)OC(=O)N[C@@H](Cc1ccc2ccccc2c1)C(=O)NCC#N | 3460 | – |
| CC(C)(C)OC(=O)N[C@@H](Cc1ccco1)C(=O)NCC#N | > 330 | – |
| CC(C)[C@H](NC(=O)OC(C)(C)C)C(=O)NCC#N | > 330 | – |
| N#CCNC(=O)[C@H](Cc1ccccc1)NC(=O)c1ccc(-c2ccccc2)cc1 | 3920 | – |
| CC(C)(C)OC(=O)N[C@@H](CCc1ccccc1)C(=O)NCC#N | > 330 | – |
| N#CCNC(=O)[C@H](CC1CCCCC1)NC(=O)c1ccc(-c2noc(-c3cccs3)n2)cc1 | > 330 | – |
| N#CCNC(=O)[C@H](CC1CCCCC1)NC(=O)c1ccc(-c2ccccc2)cc1 | > 330 | – |
| CC(C)(C)OC(=O)N[C@@H](Cc1cccs1)C(=O)NCC#N | > 330 | – |
| CC(C)(C)OC(=O)N[C@@H](Cc1c[nH]c2ccccc12)C(=O)NCC#N | > 330 | – |
| CC[C@H](NC(=O)OC(C)(C)C)C(=O)NCC#N | > 330 | – |
| COc1ccc(C[C@H](NC(=O)OCc2ccccc2)C(=O)NCC#N)cc1 | > 330 | – |
| CSCC[C@@H](C#N)NC(=O)C(CC(C)C)NC(=O)c1ccc(-c2ccccc2)cc1 (some centres not stated) | > 330 | – |

| Compound | Ki (Cathepsin B [1]) [nM] | further results |
| --- | --- | --- |
| CC(C)(C)OC(=O)N[C@@H](Cc1ccccc1)C(=O)N[C@H](C#N)CC#N | > 330 | – |
| COC(=O)Cn1cc(COC[C@@H](C#N)NC(=O)[C@H](Cc2cccc(Br)c2)NC(=O)c2ccc(-c3ccccc3)cc2)nn1 | 26 | Ki (Cathepsin S): 186 nM; Ki (Cathepsin B [2]): 136 nM; Ki (Cathepsin K): 67.6 nM; Ki (Procathepsin L): 431 nM; Ki (Cathepsin B [3]): 131 nM |
| CSCC[C@@H](C#N)NC(=O)[C@H](Cc1ccccc1)NC(=O)OC(C)(C)C | > 330 | – |
| CC(C)(C)OC(=O)N[C@H](C(=O)NCC#N)c1ccccc1 | > 330 | – |
| CSCC[C@@H](C#N)NC(=O)[C@H](CC(C)C)NC(=O)c1ccc(-c2ccccc2)cc1 | 330 | – |
| CC(C)(C)OC(=O)N[C@@H](CC1CC1)C(=O)NCC#N | > 330 | – |
| CC(C)C[C@H](NC(=O)c1ccc(-c2noc(-c3cccs3)n2)cc1)C(=O)NCC#N | > 330 | – |
| N#CCNC(=O)[C@H](Cc1ccccc1)NC(=O)OCc1ccccc1 | > 330 | – |
| CCCC[C@H](NC(=O)OC(C)(C)C)C(=O)NCC#N | > 330 | – |
| C[C@@H](C#N)N(C)C(=O)[C@H](Cc1ccccc1)NC(=O)OC(C)(C)C | > 330 | – |
| N#CCNC(=O)[C@H](Cc1ccccc1)NC(=O)c1ccccc1 | > 330 | – |
| CC(C)(C)OC(=O)N[C@@H](Cc1cccc2ccccc12)C(=O)NCC#N | > 330 | – |
| CC(C)C[C@H](NC(=O)OC(C)(C)C)C(=O)NCC#N | 94000 | – |
| N#CCNC(=O)[C@H](Cc1ccc(O)cc1)NC(=O)OCc1ccccc1 | > 330 | – |
| CC(C)(C)OC(=O)N[C@@H](Cc1ccc(Br)cc1)C(=O)NCC#N | > 330 | – |
| CN(CC#N)C(=O)[C@H](Cc1ccccc1)NC(=O)OCc1ccccc1 | > 330 | – |
| CC(C)C[C@H](NC(=O)Nc1ccc(-c2noc(-c3cccs3)n2)cc1)C(=O)NCC#N | > 330 | – |
| N#C[C@H](Cc1cn(CC(=O)O)nn1)NC(=O)[C@H](Cc1cccc(Br)c1)NC(=O)c1ccc(-c2ccccc2)cc1 | 11200 | Ki (Cathepsin S): 4230 nM; Ki (Cathepsin B [2]): 707 nM; Ki (Cathepsin K): 535 nM; Ki (Procathepsin L): 11700 nM; Ki (Cathepsin B [3]): 368 nM |
| C[C@@H](C#N)NC(=O)[C@H](Cc1ccccc1)NC(=O)OCc1ccccc1 | > 330 | – |
| CC(C)(C)OC(=O)N[C@@H](Cc1ccccc1)C(=O)NCC#N | 37000 | – |
| CSCC[C@H](NC(=O)OC(C)(C)C)C(=O)NCC#N | > 330 | – |
| CC(C)(C)OC(=O)N[C@H](Cc1ccccc1)C(=O)NCC#N | > 330 | – |
| CC(C)(C)OC(=O)N[C@@H](Cc1cccc(-c2ccccc2)c1)C(=O)NCC#N | 5350 | – |

| Compound | Ki (Cathepsin B [1]) [nM] | further results |
| --- | --- | --- |
| N#C[C@H](COCc1cn(CCC(=O)O)nn1)NC(=O)[C@H](Cc1ccccc1)NC(=O)OCc1ccccc1 | 33000 | Ki (Cathepsin S): 2250 nM; Ki (Cathepsin K): 370 nM; Ki (Procathepsin L): 1270 nM |
| N#CCNC(=O)C1(NC(=O)OCc2ccccc2)CCCCC1 | > 330 | – |
| CC(C)(C)OC(=O)NCC(=O)NCC#N | > 330 | – |
| CN(CC#N)C(=O)[C@H](Cc1ccccc1)NC(=O)OC(C)(C)C | > 330 | – |
| CSCC[C@@H](C#N)NC(=O)[C@H](CC1CCCCC1)NC(=O)OC(C)(C)C | > 330 | – |
| CC(C)(C)OC(=O)N1CCC[C@H]1C(=O)NCC#N | > 330 | – |
| N#C[C@H](CCOCc1cn(CC(=O)O)nn1)NC(=O)[C@H](Cc1ccccc1)NC(=O)OCc1ccccc1 | 101000 | Ki (Cathepsin S): 1000 nM; Ki (Cathepsin K): 580 nM; Ki (Procathepsin L): 2160 nM |
| CSCC[C@@H](C#N)NC(=O)[C@H](CC(C)C)NC(=O)OC(C)(C)C | > 330 | – |
| N#CCNC(=O)[C@H](Cc1cccc(Br)c1)NC(=O)c1ccc(-c2ccccc2)cc1 | 120 | Ki (Cathepsin S): 178 nM; Ki (Cathepsin B [2]): 205 nM; Ki (Cathepsin K): 930 nM; Ki (Procathepsin L): 609 nM; Ki (Cathepsin B [3]): 220 nM |
| N#C[C@H](Cc1cn(CCC(=O)O)nn1)NC(=O)[C@H](Cc1cccc(Br)c1)NC(=O)c1ccc(-c2ccccc2)cc1 | – | Ki (Cathepsin S): 1800 nM; Ki (Cathepsin K): 226 nM; Ki (Procathepsin L): 6980 nM |
| N#CCNC(=O)C1(NC(=O)c2ccc(-c3noc(-c4cccs4)n3)cc2)CCCCC1 | > 330 | – |
| CC(C)(C)OC(=O)N[C@@H](Cc1ccc(-c2ccccc2)cc1)C(=O)NCC#N | > 330 | – |
| CC(C)C[C@H](NC(=O)OCc1ccccc1)C(=O)NCC#N | 32000 | – |
| N#CCNC(=O)CNC(=O)OCc1ccccc1 | > 330 | – |
| N#CCNC(=O)[C@H](Cc1ccc2ccccc2c1)NC(=O)c1ccc(-c2ccccc2)cc1 | 126 | Ki (Cathepsin S): 180 nM; Ki (Cathepsin K): 4500 nM; Ki (Procathepsin L): 4300 nM |
| CC(C)(C)OC(=O)N[C@@H](COCc1ccccc1)C(=O)NCC#N | > 330 | – |
| CCC[C@H](NC(=O)OC(C)(C)C)C(=O)NCC#N | > 330 | – |
| CC(C)(C)OC(=O)N[C@@H](Cc1ccc(F)cc1)C(=O)NCC#N | > 330 | – |
| N#CCNC(=O)[C@@H](N)Cc1ccccc1 | > 330 | – |
| N#CCNC(=O)[C@H](Cc1cccc(-c2ccccc2)c1)NC(=O)c1ccc(-c2ccccc2)cc1 | 1230 | Ki (Cathepsin S): 2660 nM; Ki (Cathepsin K): 24.5 nM; Ki (Procathepsin L): 707 nM |
| CC(C)C[C@H](NC(=O)c1ccc(-c2ccccc2)cc1)C(=O)NCC#N | – | Ki (Cathepsin B [4]): 1790 nM |
